# How the values were obtained:
# HBV [1] = experiment: anti-HBV activity in stable transfected HepG2.2.15 cell line, HBV DNA from secreted virions by realtime PCR; type: cell-based, Hepatitis B virus; conditions: read-out: HBV-HepG2 2.15 EC50
# [2] = Cytotoxicity in HepG2 cells incubated 4 days, Resazurin assay; conditions: human, HepG2 4 days CC50, HepG2 cells
# [3] = Cytotoxicity in HepG2 cells using CellTiter-Blue, same incubation period as HepG2.2.15 assay; type: cell-based; conditions: human, HepG2 cells, 6 days, CellTiter-Blue; read-out: HepG2 6 days CC50
# Method: Cytotoxicity of the compounds was tested in HepG2 cells using CellTiter-Blue, with the same incubation period and dose range as in the HepG2.2.15 assay.
# HBV [4] = experiment: anti HBV activity in HepG2.117 cell line (Tet-off, inducibly HBV producing), intracellular HBV DNA by realtime PCR; type: cell-based, Hepatitis B virus; conditions: read-out: HepG2 117 EC50
# in vitro = conditions: human, HepG2 4 days CC50
# [5] = Hepatitis B virus, HepG2.2.15, 144 h, HepG2.2.15 cells, 6 days of treatment, secreted virion HBV DNA
# [6] = Hepatitis B virus, HepG2.117, 72 h, HepG2.117 cells, 3 days of treatment, intracellular HBV DNA
# [7] = HepG2.2.15 cells, 6 days of treatment, secreted virion HBV DNA
# [8] = HepG2.117 cells, 3 days of treatment, intracellular HBV DNA
# [9] = Hepatitis B virus, HepG2.2.15, 144 h
# [10] = Hepatitis B virus, HepG2.117, 72 h
compound,measurement,setting,value
COC(=O)C1=C(CN2CCOCC2)NC(c2ncc(F)cc2F)=NC1(C)c1cc(F)cc(Cl)c1 (centres unmarked) [Compound 27],EC50,HBV [1]; [5],1.83 µM
same,CC50 at 4 days,[2],> 25 µM
same,CC50 at 6 days,[3],> 100 µM
same,EC50,HBV [4]; [6],0.63 µM
CC1(C)CCC2(N=C(c3ccccn3)NC(CN3CCOCC3)=C2C#N)c2ccccc21 (centres unmarked) [Compound 57],EC50,HBV [1]; [5],> 100 µM
same,CC50 at 4 days,[2],> 25 µM
same,CC50 at 6 days,[3],87.4 µM
same,EC50,HBV [4]; [6],> 25 µM
COC(=O)C1=C(CN2CCOCC2)NC(c2ccccn2)=NC1(C)c1cccc(F)c1 (centres unmarked) [Compound 30],EC50,HBV [1]; [5],0.941 µM
same,CC50 at 4 days,[2],> 25 µM
same,CC50 at 6 days,[3],> 100 µM
same,EC50,HBV [4]; [6],0.29 µM
CCOC(=O)C1=C(CN2CCOCC2)NC(c2ccccn2)=NC1(C)c1ccc(F)cc1F (centres unmarked) [Compound 42],EC50,HBV [1]; [5],3.07 µM
same,CC50 at 4 days,[2],> 50 µM
same,CC50 at 6 days,[3],57.7 µM
same,EC50,HBV [4]; [6],1.29 µM
CCOC(=O)C1=C(CN2CCSCC2)NC(c2ccccn2)=NC1(C)c1ccc(F)cc1 (centres unmarked) [Compound 8],EC50,HBV [1]; [5],14.8 µM
same,CC50 at 4 days,[2],> 50 µM
same,CC50 at 6 days,[3],54.3 µM
same,EC50,HBV [4]; [6],3.3 µM
COC(=O)C1=C(CN2CCOCC2)NC(c2ncc(F)cc2F)=NC1(C)c1ccc(F)c(Cl)c1 (centres unmarked) [Compound 150],EC50,HBV [1]; [5],1.35 µM
same,CC50 at 4 days,[2],> 25 µM
same,EC50,HBV [4]; [6],0.694 µM
"COC(=O)C1=C(C)NC(SC)=NC1(C)c1ccc(F)c(F)c1 (single isomer, unassigned) [Compound 160a]",EC50,HBV [1]; [7],> 50 µM
same,CC50 at 4 days,[2],> 25 µM
same,EC50,HBV [4]; [8],> 25 µM
CCOC(=O)C1=C(CN2CCOCC2)NC(c2ccccn2)=NC1(C)c1ccc(F)c(Cl)c1 (centres unmarked) [Compound 18],EC50,HBV [1]; [5],3.92 µM
same,CC50 at 4 days,[2],> 50 µM
same,CC50 at 6 days,[3],36.5 µM
same,EC50,HBV [4]; [6],1.6 µM
COC(=O)C1=C(C)NC(c2ccccn2)=NC1(C)c1cccc(F)c1 (centres unmarked) [Compound 31],EC50,HBV [1]; [9],72.4 µM
same,CC50 at 4 days,[2],> 50 µM
same,CC50 at 6 days,[3],> 100 µM
same,EC50,HBV [4]; [10],40.6 µM
"COC(=O)C1=C(C#N)NC(c2ncc(F)cc2F)=NC1(C)c1ccc(F)c(F)c1 (single isomer, unassigned) [Compound 163a]",EC50,HBV [1]; [5],69.5 µM
same,CC50 at 4 days,[2],> 25 µM
same,EC50,HBV [4]; [6],> 25 µM
COC/C=C/C1=C(C(=O)OC)C(C)(c2ccc(F)c(F)c2)N=C(c2ncc(F)cc2F)N1 (centres unmarked) [Compound 147],EC50,HBV [1]; [5],2.73 µM
same,CC50 at 4 days,[2],> 25 µM
same,EC50,HBV [4]; [6],3.17 µM
COC(=O)C1=C(C)NC(c2ncc(F)cc2F)=NC1(C)c1ccc(F)c(F)c1 (centres unmarked) [Compound 132b],EC50,HBV [1]; [9],0.784 µM
same,CC50 at 4 days,[2],> 25 µM
same,EC50,HBV [4]; [10],0.474 µM
COCC1=C(C(=O)OC)C(C)(c2ccc(F)c(F)c2)N=C(c2ncc(F)cc2F)N1 (centres unmarked) [Compound 152],EC50,HBV [1]; [5],3.38 µM
same,CC50 at 4 days,[2],> 25 µM
same,EC50,HBV [4]; [6],2.88 µM
COC(=O)C1=C(C)NC(c2nccn2C)=NC1(C)c1ccc(F)c(F)c1 (centres unmarked) [Compound 162],EC50,HBV [1]; [5],> 25 µM
same,CC50 at 4 days,[2],> 25 µM
same,EC50,HBV [4]; [6],> 25 µM
COC(=O)C1=C(C)NC(c2ncc(F)cc2F)=NC1(C)c1ccc(F)c(C)c1 (centres unmarked) [Compound 149],EC50,HBV [1]; [5],23.8 µM
same,CC50 at 4 days,[2],> 25 µM
same,EC50,HBV [4]; [6],3.26 µM
"COC(=O)C1=C(C)NC(c2ncc(F)cc2F)=NC1(C)c1ccc(F)c(F)c1 (single isomer, unassigned) [Compound 132a]",EC50,HBV [1]; [5],> 100 µM
same,CC50 at 4 days,[2],21.1 µM
same,EC50,HBV [4]; [6],> 25 µM
COC(=O)C1=C(C)NC(c2ncc(F)cc2F)=NC1(C)c1ccc(Cl)c(F)c1 (centres unmarked) [Compound 156],EC50,HBV [1]; [5],1.11 µM
same,CC50 at 4 days,[2],> 25 µM
same,EC50,HBV [4]; [6],0.669 µM
COC(=O)C1=C(C)NC(c2nccs2)=NC12C(F)=Cc1c2ccc(F)c1F (racemic) [Compound 174],EC50,HBV [4]; [6],13.4 µM
same,CC50 at 4 days,in vitro,> 25 µM
COC(=O)C1=C(CN2CCOCC2)NC(c2ccccn2)=NC12C(F)=C(F)c1cc(F)ccc12 (centres unmarked) [Compound 169],EC50,HBV [4]; [6],0.137 µM
same,CC50 at 4 days,in vitro,> 25 µM
COC(=O)C1=C(CN2CCOCC2)NC(c2ccccn2)=NC1(C)c1ccccc1Cl (centres unmarked) [Compound 13],EC50,HBV [1]; [5],9.34 µM
same,CC50 at 4 days,[2],> 100 µM
same,CC50 at 6 days,[3],> 100 µM
same,EC50,HBV [4]; [6],3.9 µM
COC(=O)C1=C(C)NC(c2ncc(F)cc2C)=NC1(C)c1ccc(F)c(F)c1 (centres unmarked) [Compound 154],EC50,HBV [1]; [5],27.5 µM
same,CC50 at 4 days,[2],> 25 µM
same,EC50,HBV [4]; [6],17.6 µM
COC(=O)C1=C(CN2CCOCC2)NC(c2ccccn2)=NC1(C)c1cc(F)cc(Cl)c1 (centres unmarked) [Compound 29],EC50,HBV [1]; [5],6.32 µM
same,CC50 at 4 days,[2],> 25 µM
same,CC50 at 6 days,[3],47.4 µM
same,EC50,HBV [4]; [6],3 µM
COC(=O)C1=C(CN2CCOCC2)NC(c2ccccn2)=NC12CCc1cc(F)ccc12 (centres unmarked) [Compound 143],EC50,HBV [4]; [6],0.222 µM
same,CC50 at 4 days,in vitro,> 25 µM
"COC(=O)C1=C(C)NC(c2ncccn2)=NC1(C)c1ccc(F)c(F)c1 (single isomer, unassigned) [Compound 159a]",EC50,HBV [1]; [7],37.5 µM
same,CC50 at 4 days,[2],> 25 µM
same,EC50,HBV [4]; [6],25 µM
COC(=O)C1=C(C)NC(c2ccc(F)cn2)=NC1(C)c1ccc(F)c(F)c1 (centres unmarked) [Compound 133],EC50,HBV [1]; [9],17.3 µM
same,CC50 at 4 days,[2],> 25 µM
same,EC50,HBV [4]; [10],4.33 µM
N#CC1=C(CN2CCOCC2)NC(c2ccccn2)=NC12CCCc1ccc(F)cc12 (centres unmarked) [Compound 58],EC50,HBV [1]; [5],> 100 µM
same,CC50 at 4 days,[2],> 25 µM
same,CC50 at 6 days,[3],> 100 µM
same,EC50,HBV [4]; [6],> 25 µM
COC(=O)C1=C(C)NC(c2ncc(F)cc2F)=NC1(C)c1ccc(F)cc1 (centres unmarked) [Compound 128],EC50,HBV [1]; [5],9.1 µM
same,CC50 at 4 days,[2],> 50 µM
same,CC50 at 6 days,[3],63.8 µM
same,EC50,HBV [4]; [6],2.47 µM
COC(=O)C1=C(CN2CCOCC2)NC(c2ccccn2)=NC1(C)c1ccc(F)cc1 (centres unmarked) [Compound 2],EC50,HBV [1]; [5],0.669 µM
same,CC50 at 4 days,[2],> 50 µM
same,CC50 at 6 days,[3],> 100 µM
same,EC50,HBV [4]; [6],0.25 µM
CCOC(=O)C1=C(CN2CCOCC2)NC(c2ncc(F)cc2F)=NC1(C)c1ccc(F)cc1 (centres unmarked) [Compound 24],EC50,HBV [1]; [5],0.319 µM
same,CC50 at 4 days,[2],> 25 µM
same,CC50 at 6 days,[3],37.9 µM
same,EC50,HBV [4]; [6],0.16 µM
COC(=O)C1=C(C)NC(SC)=NC1(C)c1ccc(F)c(F)c1 (racemic) [Compound 160],EC50,HBV [1]; [5],0.717 µM
same,CC50 at 4 days,[2],> 25 µM
same,EC50,HBV [4]; [6],23.7 µM
N#CC1=C(CN2CCOCC2)NC(c2ccccn2)=NC12CCc1ccccc12 (centres unmarked) [Compound 76],EC50,HBV [1]; [5],8.48 µM
same,CC50 at 4 days,[2],> 100 µM
same,CC50 at 6 days,[3],> 100 µM
same,EC50,HBV [4]; [6],3.65 µM
"N#CC1=C(CN2CCOCC2)NC(c2ccccn2)=NC12CCCc1cc(F)ccc12 (single isomer, unassigned) [Compound 60a]",EC50,HBV [1]; [7],> 100 µM
same,CC50 at 4 days,[2],> 100 µM
same,CC50 at 6 days,[3],> 100 µM
same,EC50,HBV [4]; [8],> 100 µM
COC(=O)C1=C(C2CC2)NC(c2ncc(F)cc2F)=NC1(C)c1ccc(F)c(F)c1 (centres unmarked) [Compound 142],EC50,HBV [1]; [5],11.5 µM
same,CC50 at 4 days,[2],> 25 µM
same,EC50,HBV [4]; [6],3.37 µM
CCOC(=O)C1=C(C)NC(c2ccccn2)=NC1(C)c1ccc(F)c(Cl)c1 (centres unmarked) [Compound 17],EC50,HBV [1]; [5],> 50 µM
same,CC50 at 4 days,[2],> 25 µM
same,CC50 at 6 days,[3],39.9 µM
same,EC50,HBV [4]; [6],21 µM
CCOC(=O)C1=C(CN2CCOCC2)NC(c2ccccn2)=NC1(C)c1ccc(F)cc1Cl (centres unmarked) [Compound 41],EC50,HBV [1]; [5],7.39 µM
same,CC50 at 4 days,[2],> 25 µM
same,CC50 at 6 days,[3],> 50 µM
same,EC50,HBV [4]; [6],4.5 µM
CCOC(=O)C1=C(C(F)(F)F)NC(c2ccccn2)=NC1(C)c1ccc(F)cc1 (centres unmarked) [Compound 10],EC50,HBV [1]; [5],> 10 µM
same,CC50 at 4 days,[2],> 10 µM
same,CC50 at 6 days,[3],> 10 µM
same,EC50,HBV [4]; [6],> 10 µM
N#CC1=C(CN2CCOCC2)NC(c2ccccn2)=NC12CCCc1cc(F)ccc12 (racemic) [Compound 60],EC50,HBV [1]; [5],2.83 µM
same,CC50 at 4 days,[2],> 25 µM
same,CC50 at 6 days,[3],> 100 µM
same,EC50,HBV [4]; [6],2.5 µM
CCOC(=O)C1=C(CN2CCOCC2)NC(c2ccccn2)=NC1(C)c1ccc(F)cc1 (racemic) [Compound 4],EC50,HBV [1]; [7],1.92 µM
same,CC50 at 4 days,[2],> 25 µM
same,CC50 at 6 days,[3],51.1 µM
same,EC50,HBV [4]; [6],0.66 µM
